Results: paper PMC3257078, “Predicting Antitumor Activity of Peptides by Consensus of Regression Models Trained on a Small Data Sample” (International Journal of Molecular Sciences, 2011)
Read-outs that look alike come from different tables or passages of the source.

How the values were obtained:
[1] = test system: HeLa (cervical carcinoma); conditions: c = 10^-4 M, cited from earlier work
Source text: Table 3 Growth inhibition effects of OGF-related peptides. | column: PG(%) ^a / HeLa

[2] = test system: MCF-7 (breast carcinoma); conditions: c = 10^-4 M, cited from earlier work
Source text: Table 3 Growth inhibition effects of OGF-related peptides. | column: PG(%) ^a / MCF-7

[3] = test system: SW 620 (colon carcinoma); conditions: c = 10^-4 M, cited from earlier work
Source text: Table 3 Growth inhibition effects of OGF-related peptides. | column: PG(%) ^a / SW620

[4] = test system: MCF-7 (breast carcinoma); assay: Proliferation assay (MTT), MCF-7 cells; type: cell-based; conditions: c = 10^-4 M, 72 h incubation, absorbance 570 nm, quadruplicate in three individual experiments
Source text: (§1) Peptides 10, 12–14 as well as trisulfoxide derivative 15 were screened for possible antiproliferative effects on three cell lines: SW 620 (colon carcinoma), MCF-7 (breast carcinoma) and HeLa (cervical carcinoma), according to the previously published procedure. Table 3 summarizes activities found for tested peptides, expressed as percentage of growth (PG) of three cell lines, together with values for OGF and three OGF-related peptides proposed by the SVM radial basis function kernel (RBF). […] Therefore, the approach presented here managed to select peptides with improved biological activities from virtual library.
(§2) The biological potential of prepared compounds has been tested in the Laboratory for experimental therapy (Ruđer Bošković Institute) following the previously published procedure. Briefly, MCF-7, SW 620 and HeLa cells were cultured as monolayers and maintained in Dulbecco’s modified Eagle medium (DMEM), supplemented with 10% fetal bovine serum (FBS), 2mM L-glutamine, 100 U/mL penicillin and 100 μg/mL streptomycin in a humidified atmosphere with 5% CO2 at 37 °C. The panel cell lines were inoculated onto a series of standard 96-well microtiter plates on day 0, at 1 × 10^4 to 3 × 10^4 cells/mL, depending on the doubling times of specific cell line. Test agents were then added in five, 10-fold dilutions (10^−8 to 10^−4 M) and incubated for a further 72 hours. Working dilutions were freshly prepared on the day of testing. The solvent was also tested for eventual inhibitory activity by adjusting its concentration to be the same as in working concentrations. After 72 hours of incubation the cell growth rate was evaluated by performing the MTT assay. For this purpose the substance treated medium was discarded and MTT was added to each well at a concentration of 20 μg/40 μL. After four hours of incubation the precipitates were dissolved in 160 μL of dimethylsulphoxide (DMSO). The absorbance that is directly proportional to the number of living, metabolically active cells was measured on a microplate reader at 570 nm. Each test point was performed in quadruplicate in three individual experiments.

[5] = test system: SW 620 (colon carcinoma); assay: Proliferation assay (MTT), SW 620 cells; type: cell-based; conditions: c = 10^-4 M, 72 h incubation, absorbance 570 nm, quadruplicate in three individual experiments
Source text: as §1, §2

[6] = test system: HeLa (cervical carcinoma); assay: Proliferation assay (MTT), HeLa cells; type: cell-based; conditions: c = 10^-4 M, 72 h incubation, absorbance 570 nm, quadruplicate in three individual experiments
Source text: as §1, §2

[7] = Oxidation of Met residues to sulfoxide during acid Boc deprotection; type: physicochemical; conditions: cold TFA-H2O (9:1), ice bath, 5 min, full scan MS: only traces of 11 (m/z 750), oxidized forms m/z 766, 782, 798
Protocol: Synthesis of methionine rich peptides 10–14 was based on the 2 + 2 and 2 + 3 coupling between Boc-protected dipeptides 1–4 and H-Met-Met-OH or H-Met-Met-Met-OH (Scheme 1). Different methods of peptide bond formation were tested; finally peptides 5–7 were obtained by the DCC/HOSu method, activation with HATU yielded Ada-containing pentapeptide 8, while pentapeptide 9 was obtained by the mixed anhydride method (details in the Experimental section). Finally, deprotection of the Boc group was performed by acid hydrolysis and extra precautions were taken due to the known susceptibility of methionine residue toward acid-promoted oxidation to sulfoxide. Therefore, deprotection step was performed in ice bath, crude product was immediately purified by the HPLC and residual acid removed by passing through the short C18 column. […] During the purification procedure, only oxidized product 15 was isolated. All prepared compounds were characterized by NMR spectroscopy and deprotected compounds 10 and 12–15 additionally by tandem mass spectrometry and HRMS. The main feature of MS/MS spectra of the molecular [M + H]^+ ions of all peptides is high abundance of Y” and B-type fragment ions (Figure S1, Supplementary Information).
Boc-protected peptides 5–9 were treated with cold TFA-H2O (9:1) mixture in ice bath for 5 min. […]

Row | Substance | PG(%) MCF-7 (percentage of growth) [4] [%] | PG(%) SW620 (percentage of growth) [5] [%] | PG(%) HeLa (percentage of growth) [6] [%] | PG(%) HeLa (percentage of growth) ([1]; training set peptides) [%] | PG(%) MCF-7 (percentage of growth) ([2]; training set peptides) [%] | PG(%) SW620 (percentage of growth) ([3]; training set peptides) [%] | further results
1 | H-Phe-Ada-Gly-Phe-Met-OH | – | – | – | – | – | – | PG(%) HeLa (percentage of growth) [1]: 49%; PG(%) MCF-7 (percentage of growth) [2]: 39%; PG(%) SW620 (percentage of growth) [3]: 35%
2 | H-Phe-Ada-Gly-Phe-Phe-OH | – | – | – | – | – | – | PG(%) HeLa (percentage of growth) [1]: 23%; PG(%) MCF-7 (percentage of growth) [2]: 41%; PG(%) SW620 (percentage of growth) [3]: 39%
3 | H-Phe-Ada-Met(O)-Met(O)-Met(O)-OH [Compound 15] | 82 | 77 | 64 | – | – | – | –
4 | H-Phe-Ada-Met-Met-Met-OH [Compound 11, Ada-containing pentapeptide, only traces seen; oxidized to 15 during deprotection] | – | – | – | – | – | – | Susceptibility of Met residues to oxidation (sulfoxide formation) [7]: extreme susceptibility to oxidation
5 | H-Phe-Ala-Met-Met-Met-OH [Compound 10] | 74 | 100 | 88 | – | – | – | –
6 | H-Phe-Ala-Met-Met-OH [Compound 13] | 68 | 86 | 71 | – | – | – | –
7 | H-Phe-Gly-Met-Met-Met-OH [Compound 12] | 86 | 95 | 86 | – | – | – | –
8 | H-Tyr-(R)-Ada-Gly-OH | – | – | – | 89 | 100 | 87 | –
9 | H-Tyr-(R)-Ada-OH | – | – | – | 97 | 99 | 88 | –
10 | H-Tyr-(S)-Ada-Gly-OH | – | – | – | 90 | 100 | 85 | –
11 | H-Tyr-(S)-Ada-OH | – | – | – | 92 | 100 | 72 | –
12 | H-Tyr-Ada-Gly-Phe-Met-OH | – | – | – | 85 | 100 | 85 | –
13 | H-Tyr-Ada-Gly-Phe-Phe-OH | – | – | – | – | – | – | PG(%) HeLa (percentage of growth) [1]: 71%; PG(%) MCF-7 (percentage of growth) [2]: 81%; PG(%) SW620 (percentage of growth) [3]: 38%
14 | H-Tyr-Ala-Met-Met-Met-OH [Compound 14] | 71 | 97 | 91 | – | – | – | –
15 | H-Tyr-Gly-Gly-Phe-Met-OH [OGF, native opioid growth factor (OGF), Met-enkephalin] | 92 | 85 | 88 | – | – | – | –
